Source: ChEMBL document CHEMBL4265980, “Hemozoin inhibiting 2-phenylbenzimidazoles active against malaria parasites” (Eur J Med Chem, 2018)
Activity calls are given as the source filed them. The rule behind the calls is not given here.

Experiments:
Plasmodium falciparum [1] = experiment: Antiplasmodial activity against asexual erythrocyte stage of chloroquine-sensitive Plasmodium falciparum NF54 infected in human red blood cells after 48 hrs by lactate dehydrogenase assay; type: functional, organism-based; settings: for IC50: NF54, 48 h
[2] = Inhibition of beta hematin formation after 5 to 6 hrs by NP40 detergent-based assay
[3] = Selectivity index, ratio of IC50 for CHO cells to IC50 for asexual erythrocyte stage of chloroquine-sensitive Plasmodium falciparum NF54 infected in human red blood cells; type: toxicity, cell-based; settings: Chinese hamster, read-out: Ratio IC50
CHO = experiment: Cytotoxicity against CHO cells by MTT assay; type: cell-based; settings: Cricetulus griseus
[4] = Selectivity index, ratio of IC50 for CHO cells to IC50 for asexual erythrocyte stage of chloroquine-resistant Plasmodium falciparum Dd2 infected in human red blood cells; type: toxicity, cell-based; settings: Chinese hamster, read-out: Ratio IC50
[5] = Resistance index, ratio of IC50 for asexual erythrocyte stage of chloroquine-resistant Plasmodium falciparum Dd2 infected in human red blood cells to IC50 for asexual erythrocyte stage of chloroquine-sensitive Plasmodium falciparum NF54 infected in human red blood cells; type: functional
Plasmodium falciparum [6] = experiment: Antiplasmodial activity against asexual erythrocyte stage of chloroquine-resistant Plasmodium falciparum Dd2 infected in human red blood cells after 48 hrs by lactate dehydrogenase assay; type: functional, organism-based; settings: Dd2, 48 h
Plasmodium falciparum [7] = experiment: Antiplasmodial activity against Plasmodium falciparum NF54 assessed as decrease in hemozoin levels after 32 hrs by spectrophotometric analysis; type: functional, organism-based
Plasmodium falciparum [8] = experiment: Antiplasmodial activity against Plasmodium falciparum NF54 assessed as increase in undigested hemoglobin levels after 32 hrs by spectrophotometric analysis; type: functional, organism-based

IC50 (Plasmodium falciparum [1]; read-out: IC50) | IC50 (Plasmodium falciparum [1]; read-out: pIC50 (converted)) | 1/IC50 [2] | IC50 [2] | Structure (SMILES) | also measured
7.2 µM | 7.24 µM | 0.0111 µM⁻¹ | 90 µM | O=C(Nc1ccc(-c2nc3ccccc3[nH]2)cc1)c1ccc(Cl)cc1Cl | –
1.34 µM | 1.35 µM | 0.0356 µM⁻¹ | 28.1 µM | O=C(Nc1ccc(-c2nc3ccccc3[nH]2)cc1)c1cccc(C(F)(F)F)c1 | –
11.6 µM | 11.5 µM | 0.0281 µM⁻¹ | 35.6 µM | O=C(Nc1ccc(-c2nc3ccccc3[nH]2)cc1)c1cccnc1 | –
15 µM | 15.1 µM | 0.0262 µM⁻¹ | 38.2 µM | O=C(Nc1ccc(-c2nc3ccccc3[nH]2)cc1)c1ccccc1Cl | –
1.21 µM | 1.2 µM | 0.0398 µM⁻¹ | 25.1 µM | O=C(Nc1ccc(-c2nc3ccccc3[nH]2)cc1)c1cccc(Cl)c1 | –
1.3 µM | 1.29 µM | 0.0408 µM⁻¹ | 24.5 µM | O=C(Nc1ccc(-c2nc3ccccc3[nH]2)cc1)c1cccc(Br)c1 | –
64 µM | 64.6 µM | 0.0006 µM⁻¹ | 1790 µM | O=C(Nc1ccc(-c2nc3ccccc3[nH]2)cc1)c1ccc(Cl)cc1 | –
– | 257 µM | 0.0003 µM⁻¹ | 3900 µM | O=C(Nc1ccc(-c2nc3ccccc3[nH]2)cc1)c1ccccc1 | –

More lines, now with the values behind:

Structure (SMILES) | IC50 (Plasmodium falciparum [1]; read-out: IC50) | IC50 (Plasmodium falciparum [1]; read-out: pIC50 (converted)) | 1/IC50 [2] | IC50 [2] | also measured
O=C(O)c1cncc(Br)c1 | – | – | – | – | Activity (Plasmodium falciparum [1]): inactive; inhibition [2]: inactive
O=C(Nc1ccccc1)c1cncc(Br)c1 | – | – | – | – | Activity (Plasmodium falciparum [1]): inactive; inhibition [2]: inactive
CNC(=O)c1cncc(Br)c1 | – | – | – | – | Activity (Plasmodium falciparum [1]): inactive; inhibition [2]: inactive
O=C(Nc1ccc(-c2nc3ccccc3[nH]2)cc1)c1ccc[nH]1 | 1.2 µM | 1.2 µM | 0.0215 µM⁻¹ | 46.6 µM | –
CC(C)(C)c1ccc(C(=O)Nc2ccc(-c3nc4ccccc4[nH]3)cc2)cc1 | 2 µM | 2 µM | 0.0028 µM⁻¹ | 358 µM | –
O=C(Nc1ccc(-c2nc3ccccc3[nH]2)cc1)c1cc([N+](=O)[O-])cc([N+](=O)[O-])c1 | 0.67 µM | 0.676 µM | 0.0752 µM⁻¹ | 13.3 µM | selectivity ratio [3]: 308; IC50 (CHO): 206 µM; selectivity ratio [4]: 665; Ratio IC50 [5]: 0.46; IC50 (Plasmodium falciparum [6]): 0.31 µM
O=C(Nc1ccc(-c2nc3ccccc3[nH]2)cc1)c1cncc(C(F)(F)F)c1 | 0.8 µM | 0.794 µM | 0.0602 µM⁻¹ | 16.6 µM | selectivity ratio [3]: 44; IC50 (CHO): 35 µM; selectivity ratio [4]: 32; Ratio IC50 [5]: 1.4; IC50 (Plasmodium falciparum [6]): 1.1 µM
CC(=O)Nc1ccccc1 | – | – | – | – | Activity (Plasmodium falciparum [1]): inactive; inhibition [2]: inactive
O=C(Nc1ccc(-c2nc3ccccc3[nH]2)cc1)c1cccs1 | 7.2 µM | 7.24 µM | 0.0236 µM⁻¹ | 42.4 µM | –
COc1ccccc1C(=O)Nc1ccc(-c2nc3ccccc3[nH]2)cc1 | 5.5 µM | 5.5 µM | 0.0257 µM⁻¹ | 38.9 µM | –
CC[C@H]1CN2CCc3cc(OC)c(OC)cc3[C@@H]2C[C@@H]1C[C@H]1NCCc2cc(OC)c(OC)cc21 [EMETINE] | – | – | – | – | IC50 (CHO): 0.12 µM
c1ccc2[nH]cnc2c1 | – | – | – | – | Activity (Plasmodium falciparum [1]): inactive; inhibition [2]: inactive
O=C(Nc1ccc(-c2nc3ccccc3[nH]2)cc1)c1ccco1 | 5.9 µM | 5.89 µM | 0.0119 µM⁻¹ | 84.1 µM | –
CC(=O)Nc1ccc(-c2nc3ccccc3[nH]2)cc1 | – | – | – | – | Activity (Plasmodium falciparum [1]): inactive; inhibition [2]: inactive
O=C(Nc1ccc(-c2nc3ccccc3[nH]2)cc1)c1cc(Cl)nc(Cl)c1 | 0.53 µM | 0.525 µM | 0.0595 µM⁻¹ | 16.8 µM | selectivity ratio [3]: 347; IC50 (CHO): 184 µM; selectivity ratio [4]: 541; Ratio IC50 [5]: 0.64; IC50 (Plasmodium falciparum [6]): 0.34 µM
O=C(Nc1ccc(-c2nc3ccccc3[nH]2)cc1)c1cncc(Br)c1 | 0.41 µM | 0.407 µM | 0.0313 µM⁻¹ | 32 µM | selectivity ratio [3]: 461; IC50 (CHO): 189 µM; selectivity ratio [4]: 197; Activity (Plasmodium falciparum [7]): Active; Ratio IC50 [5]: 2.4; Activity (Plasmodium falciparum [8]): Active; IC50 (Plasmodium falciparum [6]): 0.96 µM
Nc1ccc(-c2nc3ccccc3[nH]2)cc1 | – | – | – | – | Activity (Plasmodium falciparum [1]): inactive; inhibition [2]: inactive
O=C(Nc1ccc(-c2nc3ccccc3[nH]2)cc1)c1ccccc1[N+](=O)[O-] | 12.3 µM | 12.3 µM | 0.0346 µM⁻¹ | 28.9 µM | –
